# Measured values from ChEMBL document CHEMBL3758090, “Investigation of α-conotoxin unbinding using umbrella sampling” (Bioorg Med Chem Lett, 2016).
# Positions of bridges follow the written chain, without caps; N, C: chain ends. Residues, ends and D or L forms follow the SMILES beside them.
# Molecular target: T1, Soluble acetylcholine receptor (Aplysia californica, UniProt Q8WSF8)
# T1 sequence (Q8WSF8 whole entry): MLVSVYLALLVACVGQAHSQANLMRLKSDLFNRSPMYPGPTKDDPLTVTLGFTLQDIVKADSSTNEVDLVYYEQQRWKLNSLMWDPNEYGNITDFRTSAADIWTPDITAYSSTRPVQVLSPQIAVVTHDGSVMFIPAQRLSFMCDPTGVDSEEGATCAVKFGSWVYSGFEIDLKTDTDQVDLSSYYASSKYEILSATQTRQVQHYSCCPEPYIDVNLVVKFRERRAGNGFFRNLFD
# Experiment: Displacement [125I]alpha-bungarotoxin from untagged Aplysia californica AChBP expressed in Sf9 cells by competitive binding assay
smiles,measurement,value
"CC(C)C[C@@H]1NC(=O)[C@H](C)NC(=O)[C@@H]2CSSC[C@H](NC(=O)CN)C(=O)N[C@@H](CSSC[C@@H](C(=O)O)NC(=O)[C@H](Cc3ccc(O)cc3)NC(=O)[C@H](CCCCN)NC(=O)[C@@H]3CCCN3C(=O)[C@H](CC(N)=O)NC(=O)[C@H](CC(N)=O)NC1=O)C(=O)N[C@@H](CO)C(=O)N[C@@H](CC(C)C)C(=O)N1CCC[C@H]1C(=O)N1CCC[C@H]1C(=O)N2 (H-GCCSLPPCALNNPKYC-OH; disulfide 2-8, 3-16)",IC50,0.028 µM
